In US20030181461A1, “Use of phosphodiesterase antagonists to treat insulin resistance” (priority 2002, published 2003):

Experiments:
[1] = test system: insulin sensitivity in atropine-treated rats; assay: Rapid insulin sensitivity test (RIST) in rats with atropine-induced 75% HISS-dependent insulin resistance; type: in vivo, Male Sprague Dawley rats; conditions: zaprinast 0.1 mg/kg ipv
Experimental: Methods for reversal of HISS-dependent insulin resistance using a phosphodiesterase inhibitor in normal rats Male Sprague Dawley rats (250-300 g) were allowed free access to water and normal rodent food for 1 week prior to all studies. Rats were fasted for 8 hours overnight and fed for 2 hours before the start of study. Rats were anesthetized with pentobarbital-sodium (65 mg/ml, ip injection, 0.1 ml/100 g body weight). Animals were placed on a heated thermostatically controlled surgical table to maintain body temperature during surgery and the experimental procedure. An extra-corporeal arterial-venous shunt (the loop) was established between the right femoral artery and right femoral vein, according to a published, standard operating procedure developed in our laboratory (Xie et al., 1996). The loop allows for regular blood sampling of arterial blood throughout the experiment as well as infusion of intravenous drugs and monitoring of arterial blood pressure. […] A laparotomy was performed and an indwelling portal venous catheter was inserted using a portal vein puncture technique. The portal catheter was used to administer the phosphodiesterase inhibitor directly to the liver. […] At this point, blood samples (25 μl) were taken at regular intervals from the loop and analyzed for glucose concentration. […] Glucose levels were monitored every 2 minutes during and after the infusion of insulin. […]

[2] = test system: insulin resistance in cats; assay: Development of insulin resistance in cats after muscarinic antagonists (RIST); type: in vivo
Text: To avoid the complexity of the reaction to hypoglycemia, the rapid insulin sensitivity test (RIST) was employed (Lautt et al., Can. J. Physiol. Pharmacol. 76:1080 (1998)) wherein a euglycemic clamp was used following the administration of insulin and the response was quantitated as the amount of glucose required to be infused over the test period in order to hold arterial blood glucose levels constant.

## CCCOc1ccccc1-c1nc2nn[nH]c2c(=O)[nH]1 [zaprinast]
[1]
  Reversal of HDIR produced by atropine: able to reverse the HDIR produced by atropine

## COc1ccccc1CNCCCCCCNCCCCCCCCNCCCCCCNCc1ccccc1OC [methoctramine]
[2]
  Dose required to produce a full (similar degree of) insulin resistance: 10^−6 μmol/kg
